The nature of data set [1]: Solubility in glycin-NaOH buffer at pH 10.7. Format: physicochemical.
Data set [2] relates to Aspergillus niger. Description: Inhibition of Aspergillus niger amyloglucosidase assessed as residual hydrolytic activity up to 2 mM after 10 to 30 mins by spectrophotometric analysis.
Data set [3] has as its target T1, Lysosomal alpha-mannosidase (Homo sapiens, UniProt O00754).
T1 sequence (O00754 whole entry): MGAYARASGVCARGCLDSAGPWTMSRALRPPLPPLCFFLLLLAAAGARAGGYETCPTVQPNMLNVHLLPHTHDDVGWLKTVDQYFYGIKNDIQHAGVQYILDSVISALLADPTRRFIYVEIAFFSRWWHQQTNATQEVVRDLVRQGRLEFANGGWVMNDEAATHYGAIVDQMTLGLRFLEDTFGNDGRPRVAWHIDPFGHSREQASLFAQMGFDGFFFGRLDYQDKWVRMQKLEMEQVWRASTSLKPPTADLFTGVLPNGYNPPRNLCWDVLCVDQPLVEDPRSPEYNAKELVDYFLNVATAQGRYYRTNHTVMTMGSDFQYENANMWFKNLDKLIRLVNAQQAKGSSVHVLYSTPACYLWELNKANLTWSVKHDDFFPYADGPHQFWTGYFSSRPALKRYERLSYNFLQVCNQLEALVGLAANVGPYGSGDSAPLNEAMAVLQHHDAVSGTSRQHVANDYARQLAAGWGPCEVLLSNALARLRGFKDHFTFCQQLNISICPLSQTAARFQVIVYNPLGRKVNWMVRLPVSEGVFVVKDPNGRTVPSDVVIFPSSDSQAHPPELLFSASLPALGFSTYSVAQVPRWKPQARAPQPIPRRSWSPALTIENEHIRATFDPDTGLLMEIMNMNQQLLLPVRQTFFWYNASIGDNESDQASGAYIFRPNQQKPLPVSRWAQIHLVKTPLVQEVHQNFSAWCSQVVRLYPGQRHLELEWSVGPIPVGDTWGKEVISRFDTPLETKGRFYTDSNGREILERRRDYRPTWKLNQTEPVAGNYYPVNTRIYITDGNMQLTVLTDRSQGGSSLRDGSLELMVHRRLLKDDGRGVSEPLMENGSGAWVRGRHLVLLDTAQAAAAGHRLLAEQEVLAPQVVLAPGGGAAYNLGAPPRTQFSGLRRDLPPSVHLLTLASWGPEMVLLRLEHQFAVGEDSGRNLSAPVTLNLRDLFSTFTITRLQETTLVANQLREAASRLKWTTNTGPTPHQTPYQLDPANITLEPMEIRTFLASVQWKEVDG
The experiment in a line: Inhibition of Lysosomal alpha-mannosidase in wild-type human fibroblast cell lysates using 4-methylumbelliferone alpha-D-mannopyranoside as a reporter substrate incubated for 60 mins by fluorescence method. Format: subcellular, Lysate.

The target of data set [4] is Beta-galactosidase (Escherichia coli) (UniProt Q8VNN2). The experiment in a line: Inhibition of Escherichia coli beta-galactosidase assessed as residual hydrolytic activity up to 2 mM after 10 to 30 mins by spectrophotometric analysis.
Beta-galactosidase (Escherichia coli), sequence (Q8VNN2 whole entry, looked up): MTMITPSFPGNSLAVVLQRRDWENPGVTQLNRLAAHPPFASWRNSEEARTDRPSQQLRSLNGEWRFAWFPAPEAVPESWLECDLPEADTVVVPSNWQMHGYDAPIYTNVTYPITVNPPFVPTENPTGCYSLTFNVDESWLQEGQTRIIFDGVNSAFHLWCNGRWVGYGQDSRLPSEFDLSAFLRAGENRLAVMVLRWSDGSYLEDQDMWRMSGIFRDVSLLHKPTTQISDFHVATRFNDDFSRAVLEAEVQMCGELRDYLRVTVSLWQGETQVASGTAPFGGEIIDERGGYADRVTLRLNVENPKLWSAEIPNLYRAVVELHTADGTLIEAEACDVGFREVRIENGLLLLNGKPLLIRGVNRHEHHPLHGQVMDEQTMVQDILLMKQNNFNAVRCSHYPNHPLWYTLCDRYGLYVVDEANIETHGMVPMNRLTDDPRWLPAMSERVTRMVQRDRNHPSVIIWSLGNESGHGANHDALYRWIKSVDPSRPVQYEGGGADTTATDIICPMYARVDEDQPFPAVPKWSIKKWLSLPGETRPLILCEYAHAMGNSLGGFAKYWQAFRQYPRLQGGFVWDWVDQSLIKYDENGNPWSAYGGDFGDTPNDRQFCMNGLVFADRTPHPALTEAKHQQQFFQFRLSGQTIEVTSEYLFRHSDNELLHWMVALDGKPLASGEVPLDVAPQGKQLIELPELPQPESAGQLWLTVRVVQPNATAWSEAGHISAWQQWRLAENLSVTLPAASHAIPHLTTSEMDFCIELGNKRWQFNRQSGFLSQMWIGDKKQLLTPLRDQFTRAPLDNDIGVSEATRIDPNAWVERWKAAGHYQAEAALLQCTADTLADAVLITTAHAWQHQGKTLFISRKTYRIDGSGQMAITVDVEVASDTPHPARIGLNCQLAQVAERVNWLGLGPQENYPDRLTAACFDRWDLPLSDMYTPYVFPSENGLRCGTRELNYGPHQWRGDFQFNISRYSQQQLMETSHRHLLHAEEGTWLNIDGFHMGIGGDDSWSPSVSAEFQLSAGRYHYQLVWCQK
Data set [5] is described as follows: Inhibition of bovine liver beta-glucosidase assessed as residual hydrolytic activity after 10 to 30 mins by spectrophotometric analysis. Details: species or system Bos taurus.
In data set [6] the test system is Helix pomatia. The experiment in a line: Inhibition of Helix pomatia beta-mannosidase assessed as residual hydrolytic activity up to 2 mM after 10 to 30 mins by spectrophotometric analysis.
The target of data set [7] is Alpha-galactosidase (Coffea arabica) (UniProt Q42656). The experiment in a line: Inhibition of green coffee alpha-galactosidase assessed as residual hydrolytic activity up to 2 mM after 10 to 30 mins by spectrophotometric analysis.
Alpha-galactosidase (Coffea arabica), sequence (Q42656 16-378 limits assumed): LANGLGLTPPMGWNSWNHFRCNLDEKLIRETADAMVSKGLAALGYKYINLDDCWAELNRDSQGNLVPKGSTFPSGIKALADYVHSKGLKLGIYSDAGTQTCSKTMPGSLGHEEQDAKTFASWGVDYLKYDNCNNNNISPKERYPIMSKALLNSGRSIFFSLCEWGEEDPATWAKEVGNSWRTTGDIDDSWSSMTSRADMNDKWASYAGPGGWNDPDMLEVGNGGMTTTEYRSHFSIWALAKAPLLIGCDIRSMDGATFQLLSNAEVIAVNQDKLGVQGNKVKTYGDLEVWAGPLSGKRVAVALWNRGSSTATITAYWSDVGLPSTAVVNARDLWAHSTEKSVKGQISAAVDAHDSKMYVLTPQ
The test system of data set [8] is Saccharomyces cerevisiae. Description: Inhibition of yeast alpha-glucosidase assessed as residual hydrolytic activity up to 2 mM after 10 to 30 mins by spectrophotometric analysis.
In data set [9] the target is T2, Alpha-mannosidase (Canavalia ensiformis, UniProt C0HJB3).
T2 sequence (C0HJB3 whole entry): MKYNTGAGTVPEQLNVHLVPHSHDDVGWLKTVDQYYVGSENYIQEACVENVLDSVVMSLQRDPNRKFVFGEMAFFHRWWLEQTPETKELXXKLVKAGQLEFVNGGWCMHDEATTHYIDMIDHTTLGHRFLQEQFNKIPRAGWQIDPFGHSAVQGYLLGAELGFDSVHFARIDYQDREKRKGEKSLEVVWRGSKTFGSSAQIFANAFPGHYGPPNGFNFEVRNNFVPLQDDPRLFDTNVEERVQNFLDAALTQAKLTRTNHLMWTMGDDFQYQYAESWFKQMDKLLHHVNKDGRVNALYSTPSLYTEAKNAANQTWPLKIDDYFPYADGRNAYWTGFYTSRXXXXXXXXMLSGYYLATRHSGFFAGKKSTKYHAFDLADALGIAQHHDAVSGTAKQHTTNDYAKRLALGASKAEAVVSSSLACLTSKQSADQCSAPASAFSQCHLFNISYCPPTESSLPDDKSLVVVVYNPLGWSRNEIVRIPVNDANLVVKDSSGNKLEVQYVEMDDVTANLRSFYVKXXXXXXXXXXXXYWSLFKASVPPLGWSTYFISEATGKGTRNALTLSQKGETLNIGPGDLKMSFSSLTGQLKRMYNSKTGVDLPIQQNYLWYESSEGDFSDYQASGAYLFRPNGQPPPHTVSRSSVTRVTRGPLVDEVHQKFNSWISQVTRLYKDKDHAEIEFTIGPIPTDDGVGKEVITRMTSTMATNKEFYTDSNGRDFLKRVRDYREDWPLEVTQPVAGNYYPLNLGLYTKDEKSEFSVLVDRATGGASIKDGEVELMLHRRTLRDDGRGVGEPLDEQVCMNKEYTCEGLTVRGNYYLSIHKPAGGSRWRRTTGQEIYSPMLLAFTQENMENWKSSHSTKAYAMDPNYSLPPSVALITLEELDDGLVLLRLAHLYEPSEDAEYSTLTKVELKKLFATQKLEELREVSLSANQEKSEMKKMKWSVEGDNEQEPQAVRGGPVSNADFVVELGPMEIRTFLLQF
The experiment in a line: Inhibition of jack bean Lysosomal alpha-mannosidase assessed as residual hydrolytic activity after 10 to 30 mins by spectrophotometric analysis.

Data set [10] concerns Saccharomyces cerevisiae. The experiment in a line: Inhibition of yeast isomaltase assessed as residual hydrolytic activity up to 2 mM after 10 to 30 mins by spectrophotometric analysis.
Data set [11] addresses T3, Lysosomal alpha-mannosidase (Homo sapiens) (UniProt O00754).
T3 sequence (whole entry): T1 sequence (O00754 whole entry)
Description: Chaperone activity at Lysosomal alpha-mannosidase in wild-type human fibroblasts assessed as increase in Lysosomal alpha-mannosidase activity using 4-methylumbelliferone alpha-D-mannopyranoside as a reporter substrate incubated for 4 days by fluorescence method.

Data set [12] deals with T3, Lysosomal alpha-mannosidase (Homo sapiens). Description: Chaperone activity at Lysosomal alpha-mannosidase in wild-type human fibroblasts assessed as increase in Lysosomal alpha-mannosidase activity at 0.2 to 20 uM using 4-methylumbelliferone alpha-D-mannopyranoside as a reporter substrate incubated for 4 days by fluorescence method relative to control.

The source made the active and inactive calls. The rule behind the calls is not given here.

A word on the IC50: it is the concentration that inhibits the measured activity by half. Read a high IC50 as a need for much substance. One may read the Ki as a dissociation constant, usually derived from enzyme kinetics or from competition with a known ligand. `CO[C@@H]1[C@@H](OC)[C@H]2O[C@H]3[C@H](OC)[C@@H](OC)[C@@H](O[C@H]4[C@H](OC)[C@@H](OC)[C@@H](O[C@H]5[C@H](OC)[C@@H](OC)[C@@H](O[C@H]6[C@H](OC)[C@@H](OC)[C@@H](O[C@H]7[C@H](OC)[C@@H](OC)[C@@H](O[C@H]8[C@H](OC)[C@@H](OC)[C@@H](O[C@@H]1[C@@H](COCc1cn(CCCCCCN[C@@H]9[C@@H](O)[C@@H](O)[C@H](O)[C@H]%10COC(=O)N%109)nn1)O2)O[C@@H]8COCc1cn(CCCCCCN[C@@H]2[C@@H](O)[C@@H](O)[C@H](O)[C@H]8COC(=O)N82)nn1)O[C@@H]7COCc1cn(CCCCCCN[C@@H]2[C@@H](O)[C@@H](O)[C@H](O)[C@H]7COC(=O)N72)nn1)O[C@@H]6COCc1cn(CCCCCCN[C@@H]2[C@@H](O)[C@@H](O)[C@H](O)[C@H]6COC(=O)N62)nn1)O[C@@H]5COCc1cn(CCCCCCN[C@@H]2[C@@H](O)[C@@H](O)[C@H](O)[C@H]5COC(=O)N52)nn1)O[C@@H]4COCc1cn(CCCCCCN[C@@H]2[C@@H](O)[C@@H](O)[C@H](O)[C@H]4COC(=O)N42)nn1)O[C@@H]3COCc1cn(CCCCCCN[C@@H]2[C@@H](O)[C@@H](O)[C@H](O)[C@H]3COC(=O)N32)nn1`: in data set [1], the solubility entry is “Soluble”. The inhibition result in [2], in [4], in data set [6], in data set [7], in data set [8] and in data set [10] was “inactive” in each case. For the same compound, in data set [3], half-maximal inhibition (IC50) was put at 0.44 µM. Further, the Ki in data set [5] was in the range of 140 to 300 µM; in [9] it was 0.5 to 50 µM.

In the case of `CC(C)(C)OC(=O)NCCCCCCCCCN[C@@H]1[C@@H](O)[C@@H](O)[C@H](O)[C@H]2COC(=O)N21`, in [1], the solubility entry is given as “Soluble”. In addition, the Activity entry in data set [11] was “Dose-dependent effect”. Further, the inhibition result in [2], in data set [4], in data set [6], in data set [7], in [8] and in data set [10] was “inactive” throughout. In [3], this compound yielded an IC50 of 30.7 µM. Also, the inhibition constant Ki in data set [5] lay in the range of 140 to 300 µM; in data set [9] it was 0.5 to 50 µM. Also, the fold change (FC) in data set [12] lay within 1.3 to 2.4.

`COC[C@H]1O[C@@H]2O[C@H]3[C@H](OC)[C@@H](OC)[C@@H](O[C@H]4[C@H](OC)[C@@H](OC)[C@@H](O[C@H]5[C@H](OC)[C@@H](OC)[C@@H](O[C@H]6[C@H](OC)[C@@H](OC)[C@@H](O[C@H]7[C@H](OC)[C@@H](OC)[C@@H](O[C@H]8[C@H](OC)[C@@H](OC)[C@@H](O[C@H]1[C@H](OC)[C@H]2OC)O[C@@H]8COC)O[C@@H]7COC)O[C@@H]6COC)O[C@@H]5COCc1cn(CCCCCCN[C@@H]2[C@@H](O)[C@@H](O)[C@H](O)[C@H]5COC(=O)N52)nn1)O[C@@H]4COC)O[C@@H]3COC`: in data set [1], the solubility result was “Soluble”. In addition, the Activity entry in data set [11] was “Dose-dependent effect”. The inhibition entry in data set [2], in [4], in [6], in data set [7], in data set [8] and in data set [10] was “inactive” each time. This compound also returned an IC50 in [3] of 2.2 µM. Moreover, the Ki in data set [5] is 140 to 300 µM; in data set [9], 0.5 to 50 µM. For the same compound, in data set [12], the fold change (FC) fell in the range of 1.3 to 2.4.

For `CCCc1cn(CCCCCCN[C@@H]2[C@@H](O)[C@@H](O)[C@H](O)[C@H]3COC(=O)N32)nn1`, in [1], the solubility entry is listed as “Soluble”. In addition, the Activity result in data set [11] is “Dose-dependent effect”. In addition, the inhibition entry in data set [2], in [4], in [6], in [7], in data set [8] and in data set [10] was “inactive” throughout. The IC50 in [3] is 17.3 µM. Moreover, the Ki in data set [5] was 140 to 300 µM; in data set [9], 0.5 to 50 µM. Further, in [12], the fold change (FC) is 1.3 to 2.4.

Consider `[N-]=[N+]=NCCCCCCCCCN[C@@H]1[C@@H](O)[C@@H](O)[C@H](O)[C@H]2COC(=O)N21`, for which the solubility result in data set [1] is recorded as “Soluble”. For the same compound, the Activity entry in [11] is “Dose-dependent effect”. Further, the inhibition result in data set [2], in data set [4], in data set [6], in [7], in [8] and in [10] was “inactive” throughout. In data set [3], this compound registered a half-maximal inhibitory concentration (IC50) of 19.3 µM. Further, the Ki is 140 to 300 µM in [5] and 0.5 to 50 µM in data set [9]. Moreover, the fold change (FC) in data set [12] fell in the range of 1.3 to 2.4.

In the case of `[N-]=[N+]=NCCCCCCN[C@@H]1[C@@H](O)[C@@H](O)[C@H](O)[C@H]2COC(=O)N21`, in data set [1], the solubility entry is reported as “Soluble”. In addition, in data set [11], the Activity entry was “Dose-dependent effect”. In addition, the inhibition entry in data set [2], in data set [4], in data set [6], in data set [7], in data set [8] and in data set [10] was “inactive” throughout. This compound also registered an IC50 in data set [3] of 116 µM. For the same compound, the results for the Ki in data set [5] and in [9] were 140 to 300 µM and 0.5 to 50 µM, respectively. Moreover, the fold change (FC) in data set [12] is 1.3 to 2.4.

For `CCCCCCCCN[C@@H]1[C@@H](O)[C@@H](O)[C@H](O)[C@H]2COC(=O)N21`, in data set [1], the solubility entry is given as “Soluble”. For the same compound, the Activity entry in [11] was “Dose-dependent effect”. In [3], this compound returned an IC50 of 26.8 µM. Moreover, the values for the Ki in data set [5] and in data set [9] were 260 µM and 3.2 µM, respectively. In addition, the fold change (FC) in data set [12] lay within 1.3 to 2.4.

(Values after ChEMBL document CHEMBL4396870, “Pharmacological Chaperones for the Treatment of α-Mannosidosis” (J Med Chem, 2019).)
